This note sets out measurements from US8609653B2, “Azaindole compounds and methods for treating HIV” (priority 2011, dated 2013).

The experiment deals with HIV. Kind of experiment: MT4 assay: antiviral HIV activity in MT-4 cells. Format: cell-based. The conditions noted are these: Human immunodeficiency virus 1, MT4, 96 h, read-out: HIV MT4 Assay IC50 (μM), HTLV-1 transformed cell line MT-4; read-out 96 hours later with cell titer glo; 10 point dose response. The procedure:
Antiviral HIV activity and cytotoxicity values for compounds of the invention from Table 1 were measured in parallel in the HTLV-1 transformed cell line MT-4 based on the method previously described (Hazen et al., 2007, In vitro antiviral activity of the novel, tyrosyl-based human immunodeficiency virus (HIV) type 1 protease inhibitor brecanavir (GW640385) in combination with other antiretrovirals and against a panel of protease inhibitor-resistant HIV (Hazen et al., “In vitro antiviral activity of the novel, tyrosyl-based human immunodeficiency virus (HIV) type 1 protease inhibitor brecanavir (GW640385) in combination with other antiretrovirals and against a panel of protease inhibitor-resistant HIV”, Antimicrob. Agents Chemother. 2007, 51: 3147-3154; and Pauwels et al., “Sensitive and rapid assay on MT-4 cells for the detection of antiviral compounds against the AIDS virus”, J. of Virological Methods 1987, 16: 171-185).
Luciferase activity was measured 96 hours later by adding a cell titer glo (Promega, Madison, Wis.). Percent inhibition of cell protection data was plotted relative to no compound control. Under the same condition, cytotoxicity of the compounds was determined using cell titer Glo™ (Promega, Madison, Wis.). IC50s were determined from a 10 point dose response curve using 3-4-fold serial dilution for each compound, which spans a concentration range>1000 fold.
These values are plotted against the molar compound concentrations using the standard four parameter logistic equation: y=((Vmax*x^n)/(K^n+x^n))+Y2
Y2=minimum y n=slope factor
Vmax=maximum y x=compound concentration [M]
A general note: Cellular ATP, detected with luciferase, serves as a proxy for viable cell number.

Each structure is given as a SMILES string.

Consider `Cc1nc2c(ccn2Cc2ccc(F)c(F)c2)c(-c2ccc3c(c2)CCCO3)c1[C@@H](OC(C)(C)C)C(=O)O` [Example 28, (R)-2-(tert-butoxy)-2-(4-(chroman-6-yl)-1-(3,4-difluorobenzyl)-6-methyl-1H-pyrrolo[2,3-b]pyridin-5-yl)acetic acid], for which the IC50 (commonly the midpoint of a concentration-inhibition curve) was found to be 6.56 µM.

In the case of `Cc1nc2c(ccn2Cc2ccc(F)c(F)c2)c(-c2ccc3c(c2)CCCO3)c1[C@H](OC(C)(C)C)C(=O)O` [Example 29, (S)-2-(tert-butoxy)-2-(4-(chroman-6-yl)-1-(3,4-difluorobenzyl)-6-methyl-1H-pyrrolo[2,3-b]pyridin-5-yl)acetic acid], the half-inhibitory concentration (IC50) was found to be 0.024 µM.

As for `Cc1cc(Cn2ccc3c(-c4ccc5c(c4)CCCO5)c(C(OC(C)(C)C)C(=O)O)c(C)nc32)ccc1F` (stereo not drawn) [Example 30, 2-(tert-butoxy)-2-(4-(chroman-6-yl)-1-(4-fluoro-3-methylbenzyl)-6-methyl-1H-pyrrolo[2,3-b]pyridin-5-yl)acetic acid], the IC50 amounted to 0.07 µM.

As for `Cc1nc2c(ccn2Cc2ccc(F)cc2Cl)c(-c2ccc3c(c2)CCCO3)c1C(OC(C)(C)C)C(=O)O` (stereo not drawn) [Example 31, 2-(tert-butoxy)-2-(1-(2-chloro-4-fluorobenzyl)-4-(chroman-6-yl)-6-methyl-1H-pyrrolo[2,3-b]pyridin-5-yl)acetic acid], the IC50 was 0.04 µM.

As for `Cc1nc2c(ccn2Cc2cc(F)c(F)c(F)c2)c(-c2ccc3c(c2)CCCO3)c1C(OC(C)(C)C)C(=O)O` (stereo not drawn) [Example 32, 2-(tert-butoxy)-2-(4-(chroman-6-yl)-6-methyl-1-(3,4,5-trifluorobenzyl)-1H-pyrrolo[2,3-b]pyridin-5-yl)acetic acid], the IC50 turned out to be 0.1 µM.

On to `Cc1nc2c(ccn2Cc2cc(F)ccc2F)c(-c2ccc3c(c2)CCCO3)c1C(OC(C)(C)C)C(=O)O` (stereo not drawn) [Example 33, 2-(tert-butoxy)-2-(4-(chroman-6-yl)-1-(2,5-difluorobenzyl)-6-methyl-1H-pyrrolo[2,3-b]pyridin-5-yl)acetic acid], for which the 50% inhibitory concentration (IC50) amounted to 0.096 µM.

Take `Cc1nc2c(ccn2Cc2cccc(F)c2F)c(-c2ccc3c(c2)CCCO3)c1C(OC(C)(C)C)C(=O)O` (stereo not drawn) [Example 34, 2-(tert-butoxy)-2-(4-(chroman-6-yl)-1-(2,3-difluorobenzyl)-6-methyl-1H-pyrrolo[2,3-b]pyridin-5-yl)acetic acid]: the IC50 stood at 0.06 µM.

Consider `Cc1ccc(Cn2ccc3c(-c4ccc5c(c4)CCCO5)c(C(OC(C)(C)C)C(=O)O)c(C)nc32)cc1F` (stereo not drawn) [Example 35, 2-(tert-butoxy)-2-(4-(chroman-6-yl)-1-(3-fluoro-4-methylbenzyl)-6-methyl-1H-pyrrolo[2,3-b]pyridin-5-yl)acetic acid], for which the IC50 was found to be 0.42 µM.

With `Cc1ccc(-c2c([C@@H](OC(C)(C)C)C(=O)O)c(C)nc3c2ccn3Cc2ccc(F)cc2F)cc1` [Example 36, (R)-2-(tert-butoxy)-2-(1-(2,4-difluorobenzyl)-6-methyl-4-(p-tolyl)-1H-pyrrolo[2,3-b]pyridin-5-yl)acetic acid], the IC50 was 50 µM.

With `Cc1ccc(-c2c([C@H](OC(C)(C)C)C(=O)O)c(C)nc3c2ccn3Cc2ccc(F)cc2F)cc1` [Example 37, (S)-2-(tert-butoxy)-2-(1-(2,4-difluorobenzyl)-6-methyl-4-(p-tolyl)-1H-pyrrolo[2,3-b]pyridin-5-yl)acetic acid], the IC50 is 0.07 µM.

`COc1ccc(Cn2ccc3c(-c4ccc5c(c4)CCCO5)c(C(OC(C)(C)C)C(=O)O)c(C)nc32)cc1` (stereo not drawn) [Example 38, 2-(tert-butoxy)-2-(4-(chroman-6-yl)-1-(4-methoxybenzyl)-6-methyl-1H-pyrrolo[2,3-b]pyridin-5-yl)acetic acid]: the IC50 was 0.12 µM.

`Cc1nc2c(ccn2Cc2ccccc2F)c(-c2ccc3c(c2)CCCO3)c1C(OC(C)(C)C)C(=O)O` (stereo not drawn) [Example 39, 2-(tert-butoxy)-2-(4-(chroman-6-yl)-1-(2-fluorobenzyl)-6-methyl-1H-pyrrolo[2,3-b]pyridin-5-yl)acetic acid]: the IC50 came to 0.068 µM.
